In article PMC9698340, “Discovery and SAR Study of Quinoxaline–Arylfuran Derivatives as a New Class of Antitumor Agents” (Pharmaceutics, 2022):

Legend:
[1] = tested on: five melanoma cell lines, including mutant B-RAFV600E and wild-type; set-up: method as in PMID 30691132; settings: range over cell lines; read-out: IC50 values against five melanoma cell lines; cited from earlier work
HeLa cells = assay: CCK-8 antiproliferation assay, HeLa; format: cell-based; settings: Homo sapiens, 48 h
Protocol: (§1) Human lung carcinoma cell lines A549, human cervical cancer cell lines HeLa, human prostate cancer cell lines PC3, human colorectal carcinoma cell lines HCT116, and human liver cells L02 were purchased from the Chinese Academy of Sciences Shanghai Cell Bank (Shanghai, China). HeLa, A549, PC3, HCT116, and L02 cells were cultured in DMEM Dulbecco’s Modified Eagle Medium (DMEM; Gibco Inc., Gaithersburg, MD, USA). All cultures were provided with 10% fetal bovine serum (FBS; YHSM, Beijing, China), 100 IU/mL penicillin, and 100 μg/mL streptomycin, and cells were incubated at 37 °C in an atmosphere of 5% CO2.
(§2) Cell viability was determined using a CCK-8 kit (Apexbio, Houston, TX, USA). […] Subsequently, absorbance was assessed at 450 nm. Three duplicates were set in each group.
(§3) All synthesized quinoxalines compounds were tested for in vitro cytotoxicity against four cancer cell lines (HeLa, PC3, A549, and HCT116). The inhibitory effects of these compounds were evaluated using the CCK-8 assay after treatment with 20 μM of each compound. […] The species of phenyl substituents have a significant effect on the activity. […] By comparison, hydrophobic substitution at the phenyl ring gave derivatives with relatively low potency (QW7–8). In addition, large substituents on the phenyl ring exerted an unfavorable influence on the potency of the compounds (QW8 and QW16).

PC3 cells = assay: CCK-8 antiproliferation assay, PC3; format: cell-based; settings: Homo sapiens, PC-3, 48 h
Protocol: as §1, §2, §3

A549 cells = assay: CCK-8 antiproliferation assay, A549; format: cell-based; settings: Homo sapiens, 48 h
Protocol: as §1, §2, §3

HCT116 cells = assay: CCK-8 antiproliferation assay, HCT116; format: cell-based; settings: Homo sapiens, HCT-116, 48 h
Protocol: as §1, §2, §3

L02 cells = assay: CCK-8 cytotoxicity against normal hepatocytes L02; format: cell-based; settings: Homo sapiens, 48 h, read-out: IC50 ± SD, L02 (human normal hepatocytes)
Protocol: as §1, §2
To further evaluate the anticancer effect of QW12, we evaluated its cytotoxicity against four human cancer cell lines: HeLa (Human cervical tumor), PC3 (Human prostate tumor), HCT116 (Human colorectal carcinomas), and A549 (Human lung carcinoma). […] Furthermore, the IC50 values of QW12 against PC3 and HCT116 were similar to those of nifuroxazide.

SMILES: N=C(N)[Se]Cc1nc2ccccc2nc1C[Se]C(=N)N [Compound 5]
- IC50 [1]: 0.8 to 3.8 µM

SMILES: O=C(N/N=C/c1ccc([N+](=O)[O-])o1)c1ccc(O)cc1 [Nifuroxazide, nifuroxazide, reference compound]
- IC50 (HeLa cells; HeLa, CCK-8, read-out: IC50 ± SD, HeLa): 16.65 ± 0.08 µM
- inhibition at 20 µM (HeLa cells; 20 μM, CCK-8, mean ± SD, read-out: Inhibition Rate (%) at 20 μM, HeLa): 80.38 ± 0.17%
- inhibition at 20 µM (PC3 cells; 20 μM, CCK-8, mean ± SD, read-out: Inhibition Rate (%) at 20 μM, PC3): 75.29 ± 0.33%
- IC50 (PC3 cells; CCK-8, read-out: IC50 ± SD, PC3): 9.83 ± 0.05 µM
- inhibition at 20 µM (A549 cells; 20 μM, CCK-8, mean ± SD, read-out: Inhibition Rate (%) at 20 μM, A549): 91.23 ± 0.04%
- IC50 (A549 cells; CCK-8, read-out: IC50 ± SD, A549): 8.06 ± 0.03 µM
- inhibition at 20 µM (HCT116 cells; 20 μM, CCK-8, mean ± SD, read-out: Inhibition Rate (%) at 20 μM, HCT116): 85.31 ± 0.24%
- IC50 (HCT116 cells; CCK-8, read-out: IC50 ± SD, HCT116): 10.46 ± 0.04 µM
- IC50 (L02 cells): 25.3 ± 0.31 µM
